Among the test systems are BT-549 breast; CAKI-1 renal; HCT-116 colon; LOX IMVI melanoma; NCI-H460 lung; OVCAR-3 ovarian; RXF 393 renal; SK-MEL-2 melanoma; SK-OV-3 ovarian; EKVX NSCLC.
Holding throughout (assay): NCI-60 cell line screen, 48 h

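In this assay, cells in 96-well plates receive the compound at five concentrations for 48 hours. Endpoints are linearly interpolated between the surrounding concentrations. GI50 = concentration required for 50% inhibition of growth. At the TGI there is no net growth.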 Where only a bound is given, the exact number is not on record here.

With `COc1cccc(Cn2c(-c3nonc3NC(C)=O)nc3ccccc32)c1`, the GI50 in the assay on BT-549 breast was 8.79 µM; in the assay with CAKI-1 renal, 2.05 µM; in the assay with HCT-116 colon, 4.94 µM; in the assay with LOX IMVI melanoma, 6.1 µM; in the assay with NCI-H460 lung it was 2.45 µM; in the assay on OVCAR-3 ovarian, 6.56 µM. In addition, the values for the GI50 in the assay with RXF 393 renal, with SK-MEL-2 melanoma and in the assay with SK-OV-3 ovarian were 1.92 µM, 3.07 µM and 3.07 µM, respectively. Moreover, the TGI with BT-549 breast, in the assay with CAKI-1 renal, with HCT-116 colon, in the assay on LOX IMVI melanoma, in the assay on NCI-H460 lung and with OVCAR-3 ovarian was greater than 100 µM in each case. For the same compound, the TGI is 5.74 µM with RXF 393 renal, 18.9 µM with SK-MEL-2 melanoma and greater than 100 µM in the assay with SK-OV-3 ovarian.
Turning to `N#C/C(=C1C=C/C(=N\O)C(Cl)=C\1)c1ccccc1`, the GI50 with BT-549 breast was 4.36 µM; with CAKI-1 renal, 1.68 µM; in the assay on HCT-116 colon, 0.382 µM; with NCI-H460 lung, 2.82 µM; in the assay on OVCAR-3 ovarian, 3.31 µM; with RXF 393 renal, 4.72 µM. Also, in the assay with SK-OV-3 ovarian, the GI50 was 3.77 µM. Further, the TGI with BT-549 breast was 16.2 µM; in the assay on CAKI-1 renal, 21.3 µM; in the assay on HCT-116 colon, 11.4 µM; in the assay on NCI-H460 lung it was 11.9 µM; in the assay on OVCAR-3 ovarian, 17 µM; with RXF 393 renal, 18.2 µM. Besides, in the assay on SK-OV-3 ovarian, the TGI came to 14.4 µM.
Consider `Cc1c(-c2nnc(-c3ccc(F)cc3)o2)nnn1-c1ccnc2c(C(F)(F)F)cccc12`, for which the GI50 with BT-549 breast is 21.6 µM; with CAKI-1 renal, 29.5 µM; with EKVX NSCLC it was 31.8 µM; with HCT-116 colon it was 16.7 µM; in the assay on LOX IMVI melanoma, 44.5 µM; with NCI-H460 lung, 30.4 µM. Also, the GI50 in the assay with OVCAR-3 ovarian was 28.7 µM; in the assay on RXF 393 renal it was 21.6 µM; with SK-MEL-2 melanoma it was greater than 100 µM; in the assay with SK-OV-3 ovarian it was 30 µM. Besides, the TGI in the assay on BT-549 breast is 58.1 µM; in the assay with CAKI-1 renal, greater than 100 µM; in the assay with EKVX NSCLC it was greater than 100 µM; in the assay on HCT-116 colon, greater than 100 µM; in the assay on LOX IMVI melanoma, greater than 100 µM; in the assay with NCI-H460 lung, greater than 100 µM. Moreover, the TGI in the assay on OVCAR-3 ovarian is greater than 100 µM; in the assay on RXF 393 renal, 70.7 µM; with SK-MEL-2 melanoma, greater than 100 µM; in the assay on SK-OV-3 ovarian, greater than 100 µM.
For the compound `O=C(O)CP(=O)(O)O`, the TGI in the assay on BT-549 breast, in the assay with CAKI-1 renal, in the assay on EKVX NSCLC, in the assay on HCT-116 colon, with LOX IMVI melanoma and in the assay with NCI-H460 lung was greater than 100 µM throughout. Moreover, the TGI in the assay with OVCAR-3 ovarian, with RXF 393 renal, in the assay on SK-MEL-2 melanoma and with SK-OV-3 ovarian was greater than 100 µM in each case.
Consider `CC1(C)N=C(N)N=C(N)N1c1cccc(CCCCOc2ccccc2)c1`, for which the GI50 with BT-549 breast is 1.15 µM; in the assay with CAKI-1 renal, 2.7 µM; in the assay on HCT-116 colon, less than 0.01 µM; in the assay with LOX IMVI melanoma it was 0.0395 µM; in the assay on NCI-H460 lung it was less than 0.01 µM; with OVCAR-3 ovarian, 0.547 µM. Moreover, the GI50 with RXF 393 renal is 0.147 µM; in the assay on SK-MEL-2 melanoma, 1.61 µM; in the assay with SK-OV-3 ovarian it was 1.91 µM. The TGI is 16.8 µM with BT-549 breast; greater than 100 µM with CAKI-1 renal; greater than 100 µM with HCT-116 colon; 14.7 µM in the assay with LOX IMVI melanoma; 12.4 µM in the assay on NCI-H460 lung; 21 µM with OVCAR-3 ovarian. Moreover, the TGI with RXF 393 renal is greater than 100 µM; in the assay with SK-MEL-2 melanoma, 19.9 µM; in the assay with SK-OV-3 ovarian, greater than 100 µM.
On to `O=C(Cc1ccccc1)NC(c1ccc(Cl)cc1)c1c(O)ccc2ccccc12` (centres undefined), for which the GI50 in the assay on BT-549 breast is 3.8 µM; in the assay with CAKI-1 renal it was 2.52 µM; in the assay with HCT-116 colon, 2.17 µM; in the assay on LOX IMVI melanoma, 3.11 µM; in the assay on NCI-H460 lung, 2.66 µM; in the assay on OVCAR-3 ovarian it was 2.97 µM. Besides, the figures for the GI50 in the assay on RXF 393 renal, with SK-MEL-2 melanoma and in the assay on SK-OV-3 ovarian were 2.17 µM, 2.9 µM and 3.01 µM, respectively. For the same compound, the TGI in the assay on BT-549 breast came to 12.8 µM; in the assay with CAKI-1 renal, 10.2 µM; in the assay with HCT-116 colon, 5.16 µM; in the assay with LOX IMVI melanoma it was 9.71 µM; in the assay with NCI-H460 lung, 7.61 µM; with OVCAR-3 ovarian, 7.64 µM. Besides, the values for the TGI with RXF 393 renal, in the assay on SK-MEL-2 melanoma and with SK-OV-3 ovarian were 8.03 µM, 6.83 µM and 9.26 µM, respectively.
As to `COc1cc(-n2cnc(-c3ccc(Cl)cc3)c2)cc(OC)c1OC`, the GI50 in the assay with BT-549 breast is 16.7 µM; in the assay on CAKI-1 renal, 24.9 µM; in the assay on EKVX NSCLC, greater than 100 µM; with HCT-116 colon, greater than 100 µM; in the assay with LOX IMVI melanoma, 18 µM; in the assay with NCI-H460 lung it was 18.6 µM. Besides, the GI50 in the assay on OVCAR-3 ovarian was greater than 100 µM; with SK-MEL-2 melanoma, 18.3 µM; in the assay with SK-OV-3 ovarian, 21.2 µM. Moreover, the TGI in the assay with BT-549 breast is 31.3 µM; in the assay with CAKI-1 renal, greater than 100 µM; in the assay with EKVX NSCLC, greater than 100 µM; with HCT-116 colon, greater than 100 µM; in the assay with LOX IMVI melanoma it was 34.3 µM; in the assay with NCI-H460 lung it was 36.8 µM. For the same compound, the TGI in the assay on OVCAR-3 ovarian was greater than 100 µM; in the assay on SK-MEL-2 melanoma it was 40.1 µM; in the assay with SK-OV-3 ovarian, 52.2 µM.
`Cc1nn(-c2ccccc2)c2nc3c(nc12)C1=NCCN1C(c1ccc(Cl)cc1)N3` (centres undefined): the GI50 in the assay on BT-549 breast is 12.6 µM; in the assay with CAKI-1 renal it was 13.2 µM; with HCT-116 colon it was 2.16 µM; in the assay with LOX IMVI melanoma, 1.94 µM; with NCI-H460 lung it was 2.19 µM; in the assay with OVCAR-3 ovarian it was 2.63 µM. Also, the GI50 in the assay on RXF 393 renal was 1.56 µM; with SK-MEL-2 melanoma it was 2.3 µM; in the assay on SK-OV-3 ovarian, 7.9 µM. The TGI in the assay with BT-549 breast stood at 27.1 µM; in the assay with CAKI-1 renal, 27.3 µM; in the assay on HCT-116 colon it was 4.86 µM; in the assay with LOX IMVI melanoma, 3.91 µM; in the assay on NCI-H460 lung, 5.03 µM; with OVCAR-3 ovarian, 7.18 µM. Besides, the TGI came out at 3.07 µM in the assay with RXF 393 renal, 4.46 µM with SK-MEL-2 melanoma and 19.4 µM with SK-OV-3 ovarian.
